Experimental data as given in ChEMBL document CHEMBL4715706, “Discovery of Benzotriazolo[4,3-d][1,4]diazepines as Orally Active Inhibitors of BET Bromodomains” (ACS Med Chem Lett, 2016).
pIC50: −log10 of the molar value. Activity calls are given as the source filed them. The rule behind the calls is not given here.

Legend:
Peregrin = biological target: T1, Peregrin (Homo sapiens, UniProt P55201); test: Inhibition of BRPF1 (unknown origin) measured after 70 mins by TR-FRET assay
T1 sequence (P55201 whole entry): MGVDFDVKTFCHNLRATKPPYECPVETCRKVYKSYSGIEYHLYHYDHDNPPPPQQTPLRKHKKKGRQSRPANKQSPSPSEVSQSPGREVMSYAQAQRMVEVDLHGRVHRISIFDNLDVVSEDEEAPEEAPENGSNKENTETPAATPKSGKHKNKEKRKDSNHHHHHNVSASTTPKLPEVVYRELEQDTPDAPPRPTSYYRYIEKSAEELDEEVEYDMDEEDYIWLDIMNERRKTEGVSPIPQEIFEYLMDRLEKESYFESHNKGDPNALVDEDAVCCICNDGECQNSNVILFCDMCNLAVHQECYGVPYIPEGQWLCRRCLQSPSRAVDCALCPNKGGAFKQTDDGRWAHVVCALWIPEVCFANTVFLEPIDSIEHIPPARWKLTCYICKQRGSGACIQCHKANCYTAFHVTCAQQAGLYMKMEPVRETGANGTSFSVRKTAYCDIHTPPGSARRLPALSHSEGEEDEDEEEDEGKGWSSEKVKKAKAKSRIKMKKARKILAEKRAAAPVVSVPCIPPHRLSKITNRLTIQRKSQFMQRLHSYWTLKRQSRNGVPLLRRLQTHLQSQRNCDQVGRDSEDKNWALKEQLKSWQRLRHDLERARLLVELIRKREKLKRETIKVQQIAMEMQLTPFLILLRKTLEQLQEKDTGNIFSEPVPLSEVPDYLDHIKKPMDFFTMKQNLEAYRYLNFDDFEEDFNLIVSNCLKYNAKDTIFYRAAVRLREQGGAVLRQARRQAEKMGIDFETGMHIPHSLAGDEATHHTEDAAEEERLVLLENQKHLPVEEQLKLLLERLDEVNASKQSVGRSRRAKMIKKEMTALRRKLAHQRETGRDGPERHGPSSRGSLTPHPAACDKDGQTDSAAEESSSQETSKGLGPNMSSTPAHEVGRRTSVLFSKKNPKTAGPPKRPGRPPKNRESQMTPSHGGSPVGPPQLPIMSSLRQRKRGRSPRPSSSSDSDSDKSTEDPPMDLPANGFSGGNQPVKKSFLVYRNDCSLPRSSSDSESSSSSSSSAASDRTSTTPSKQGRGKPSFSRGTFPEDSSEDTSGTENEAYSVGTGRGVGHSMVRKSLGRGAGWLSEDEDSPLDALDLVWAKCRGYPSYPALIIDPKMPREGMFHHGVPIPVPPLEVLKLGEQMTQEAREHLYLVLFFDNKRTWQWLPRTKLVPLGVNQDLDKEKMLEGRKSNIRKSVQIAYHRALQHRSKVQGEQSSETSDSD

[1] = Half life in rat at 1 mg/kg, iv; type: ADME, organism-based; conditions: in vivo
[2] = Protein binding in dog plasma
[3] = Half life in rat at 10 mg/kg, po; type: ADME, organism-based; conditions: in vivo
Mus musculus = test: In vivo inhibition of BET in BALB/c mouse assessed as suppression of LPS-induced IL-6 level in plasma at 15 mg/kg, po pretreated with compound followed by LPS challenge and measured after 2 hrs by ELISA; type: functional, organism-based
[4] = Cmax in rat at 10 mg/kg, po; type: ADME, organism-based; set-up: route oral, dose 10 mg/kg; conditions: in vivo
[5] = biological target: Bromodomain-containing protein 4 (Homo sapiens, UniProt O60885)
Description: Inhibition of His/FLAG-tagged BRD4 BD1 (unknown origin) using histone H4-TetraAcetylated-biotin peptide as substrate incubated for 20 mins by AlphaLISA assay

[6] = biological target: Bromodomain testis-specific protein (Homo sapiens, UniProt Q58F21); test: Inhibition of BRDT BD1 (unknown origin) using biotinylated JQ1 analog as substrate measured after 20 mins by AlphaLISA assay

pIC50 (Peregrin): < 4.82 | half-life [1]: 0.67 h | fraction unbound [2]: 0.04 | half-life [3]: 1.8 h | Cmax [4]: 290 nM | pIC50 [5]: 7.82 | pIC50 [6]: 8.52
Structure (SMILES): Cc1nnc2n1-c1ccc(-c3ccc(N)nc3)cc1N(c1ccc(Cl)cc1)C[C@H]2C
inhibition (Mus musculus): Active
